# Experimental data as given in patent US6989364B1, “Methods for treating cardiac hypertrophy by administering IFN-γ” (Genentech, Inc., priority 1998, dated 2006).
# Tested on: adult rat cardiac myocytes
# Experiment: Inhibition of PGF2α-induced spreading response of adult myocytes
# Type: cell-based
# Method: Myocytes were pre-incubated with saline vehicle or IFN-γ (500 U/ml) on day of isolation. A second addition of vehicle or IFN-γ was performed 24h after isolation, along with the addition of either vehicle or PGF2α (10^−7 M). After an additional 72 hr incubation, cells were fixed in glutaraldehyde, stained with eosin Y and viewed by fluorescence microscopy. A, B, C Cardiac myocytes after 4 days in culture: control, PGF2α, and PGF2α+IFN-γ, respectively. D, E, F Histographs showing maximum breadth of rod shaped cardiac myocytes versus percent frequency of breadth occurrence. The maximum breadth of rod-shaped cells was determined by fluorescence microscopy and imaging software. At least 200 rod shaped cells from a single experiment were examined per group.
# Myocytes were pre-incubated with saline vehicle or IFN-γ on day of isolation. A second amount of IFN-γ was added 24 hr after isolation, along with the addition of either vehicle or PGF2α (10^−7 M). After an additional 72 hr incubation, cells were fixed in glutaraldehyde, stained with eosin Y and viewed under fluorescence. Quantitation of myocyte morphology: A control, B PGF2α, C PGF2α+IFN-γ (25 U/ml), D PGF2α+IFN-γ (100 U/ml), E PGF2α+IFN-γ (500 U/ml). Histographs showing maximum breadth of rod shaped cardiac myocytes versus percent frequency of breadth occurrence. The maximum breadth of rod-shaped cells was determined by fluorescence microscopy and imaging software. At least 200 rod shaped cells from a single experiment were examined per group.
# In this assay, ventricular myocytes are isolated from a single (male Sprague-Dawley) rat, essentially following a modification of the procedure described in detail by Piper et al., “Adult ventricular rat heart muscle cells.” In: Cell Culture Techniques in Heart and Vessel Research, H. M. Piper, ed., Berlin: Spinger-Verlag, 1990, pp. 36–60. This procedure permits the isolation of adult ventricular myocytes and the long-term culture of these cells in the rod-shaped phenotype. […] Piper et al., supra; Lai et al., Am J. Physiol. 1996; 271 (Heart Circ. Phvsiol. 40):H2197–H2208. The inhibition of myocyte spreading induced by PGF2α, or PGF2α analogs, (e.g. fluprostenol) and phenylephrine by various potential inhibitors of cardiac hypertrophy is then tested. A detailed protocol is described in the examples that follow.
# Adult myocyte cultures The procedure used for the isolation of ventricular myocytes from adult rats was a modification of a procedure described by Piper et al., supra, and is detailed in Lai et al., supra. For each myocyte preparation, one male Sprague-Dawley rat weighing about 250 g was anesthetized with pentobarbital sodium, and the heart was removed. Extraneous tissue was trimmed from the heart, and it was mounted onto a Langendorff system that was temperature controlled at 37° C. The heart was perfused with about 40 ml of Krebs buffer (110 mM NaCl, 2.6 mM KCl, 1.2 mM KH2PO4, 1.2 mM MgSO4.7H2O, 25 mM NaHCO3 and 11 mM glucose). A solution containing 30 mg of collagenase and 12.5 μl of 100 mM CaCl2 in 50 ml of Krebs buffer was then recirculated through the heart for 30 minutes. The heart was removed from the Langendorff apparatus, and the atria and connective tissues were removed. The ventricles were cut into 2 mm cubes with dissecting scissors, and further digested in a fresh collagenase solution (30 mg collagenase and 400 mg BSA dissolved in Krebs buffer with 12.5 μl of 100 mM CaCl2) for five minutes at 37° C. During the digestion, the tissue suspension was gently band shaken one time per minute. After the digestion, the supernatant was removed and saved, and the remaining tissue was further digested in fresh collagenase solution for an additional five minutes.
substance,measurement,setting,value
"IFN-γ: recombinant mouse IFN-γ (Genentech, Inc., South San Francisco, Calif., or Genzyme, Cambridge, Mass.)",Dose dependence of the inhibitory effect on PGF2α-induced myocyte spreading,"IFN-γ 25, 100, 500 U/ml, PGF2α 10^−7 M",dose dependent
same,Inhibition of PGF2α-induced myocyte spreading (maximum cell breadth of rod shaped cells),"IFN-γ 500 U/ml, PGF2α 10^−7 M, 72 hr, P<0.001 vs PGF2α",significantly inhibited their response to PGF2α
same,Effect of the substance alone on morphology of the cells,"IFN-γ alone, 500 U/ml, no PGF2α",had no observable effect on the morphology of the cells
